Patent US4436732A, “Medicated compound for treating diseases infected by virus of the herpes group” (priority 1981, dated 1984)

Columns and labels:
[1] = solubility of the active principle; type: physicochemical
Source text: The active principle is an individual substance of the xanthone nature (mangiferin euxantogen) of the formula C19 H18 O11. […] This compound has not been hitherto used in the medicine.

[2] = acute toxicity and tolerance; design: species or system white mice, rats, guinea pigs and dogs; conditions: in vivo
Experimental: The study of an acute toxicity and tolerance of the active principle and the medicated compound in the form of tablets has been carried out on white mice, rats, guinea pigs and dogs with different modes of administration.
The active principle and tablets of the are administered in the form of an aqueous suspension hypodermally, intraperitoneally and in stomach.

[3] = effect on characteristics of blood coagulation; type: in vivo, rabbits; conditions: per os, 50 mg/kg, during 4 hours
Experimental: The study of the effect of the active principle on certain characteristics of blood coagulation has been carried out on 5 rabbits. The compound is administered per os in the dose of 50 mg/kg as a suspension in a 2% starch paste. Blood has been examined prior to the administration and during 4 hours after a single-time administration of the suspension; determined are: blood plasma recalcification, thrombin time, thrombelastographic characteristics and thrombocyte concentration.

[4] = system: vessels of an isolated rabbit's ear; test: vasodilative effect on vessels of an isolated rabbit's ear
Source text: (§1) The cardiological effect of the active principle has been studied in experiments on an isolated cat's heart; the effect on electrocardiographic characteristics has been studied in experiments on rabbits; the vasodilative effect--on vessels of an isolated rabbit's ear; the spasmolytic effect--on acetylcholine and barium spasms of smooth muscles of an isolated section of a rat's small intestine.

[5] = effect on hemodynamics and breathing, acute experiment on narcotized cats; type: in vivo; conditions: 50 mg/kg intra-stomach
Experimental: The study of the effect of this compound on the characteristics of hemodynamics and breathing has been carried out in an acute experiment on 6 narcotized cats (urethane 1.0 g/kg, chloralose 60 mg/kg) upon the intra-stomach administration of the active principle in the dose of 50 mg/kg. In each cat simultaneously recorded were the breathing frequency cardiac contraction frequency, systemic arterial pressure, amplitude of the volume blood flow in the abdominal aorta, amplitude of the brain rheograms and femur muscles rheorgrams.

[6] = antidiabetic effect: glucose in blood under alimentary carbohydrate load; type: in vivo, rabbits; conditions: per os
Experimental: To reveal the antidiabetic effect of the active principle, its effect on the content of glucose in rabbit's blood under the conditions of alimentary carbohydrate load has been studied. The active principle is administered in doses of 50 and 100 mg/kg once per os through a tube in a 1% starch paste. The experiment scheme is the following: the content of glucose in blood is determined in rabbit's blood on an empty stomach, and 40 minutes thereafter the content of glucose is again determined in blood. Afterwards, glucose is administered to the rabbits at the rate of 1.5 g/kg and the content of glucose in blood is determined 15, 30, 45, 60, 90 and 120 minutes after the administration thereof.

[7] = anti-ulcerous effect on the model of caffeine-arsenic ulcer; type: in vivo, rats; conditions: per os for nine days, 20 mg/kg
Experimental: The anti-ulcerous effect of the active principle has been studied on the model of caffeine-arsenic ulcer in rats. The substance is administered per os for nine days in the doses of 1, 10 and 20 mg/kg.

[8] = system: smooth muscles of an isolated section of a rat's small intestine; test: spasmolytic effect on acetylcholine and barium spasms of smooth muscles of an isolated section of small intestine
Source text: as §1

In the case of `O=c1c2cc(O)c(O)cc2oc2cc(O)c([C@@H]3O[C@H](CO)[C@@H](O)[C@H](O)[C@H]3O)c(O)c12` [active principle, 2-C-β-D-glucopyranosyl-1,3,6,7-tetraoxyxanthone], the solubility in chloroform ([1]; chloroform) is reported as “insoluble”, the solubility in ethanol ([1]; ethanol) is reported as “sparingly soluble” and the “solubility in ethyl ether” value ([1]; ethyl ether) is reported as “insoluble”. The solubility in water ([1]; water) was “insoluble”, the “toxicity (overall)” value [2] was “low-toxic” and the LD50 ([2]; ip, intraperitoneal) was 3000 to 4000 mg/kg. The LD50 ([2]; po, in-stomach) was 10000 mg/kg, the LD50 ([2]; sc, hypodermal) was greater than 5000 mg/kg and the “effect on the blood coagulation process” value [3] was “does not substantially affect”. The vasodilative effect [4] was “no vasodilative”, the “other characteristics of hemodynamics” value ([5]; narcotized cats) was “not substantially changed” and the systemic arterial pressure ([5]; narcotized cats) was “slightly lowers”. The “reduction of arterial pressure” value ([5]; 60 and 90 minutes) was “do not differ from the control”, the “reduction of breathing frequency vs control” value ([5]; 60 and 90 minutes) was “do not differ from the control” and the “reduction of breathing frequency” value ([5]; 10 minutes, P below 0.05) was 21%. The “reduction of breathing frequency” value ([5]; 30 minutes, P below 0.01) was 32%, the “effect on the glycemic curve” value ([6]; 50 mg/kg) was “no effect” and the “increase of glucose tolerance” value ([6]; 100 mg/kg, uncertainly increased) was 14%. The anti-ulcerous effect [7] was “weak anti-ulcerous effect” and the spasmolytic effect [8] was “no vasodilative and spasmolytic effect”.
